This is an account of results in ChEMBL document CHEMBL5120851, “Discovery of indirubin-3'-aminooxy-acetamide derivatives as potent and selective FLT3/D835Y mutant kinase inhibitors for acute myeloid leukemia” (Eur J Med Chem, 2022).

Each structure is given as a SMILES string.

One data set concerns K562. Description: Antiproliferative activity against human K562 cells assessed as inhibition of cell growth at 1 uM incubated for 72 hrs by EZ-Cytox colorimetric assay relative to control. Type of data set: functional.
Data set [1] relates to MOLM-14. Description: Antiproliferative activity against human MOLM-14 cells assessed as inhibition of cell growth incubated for 72 hrs by EZ-Cytox colorimetric assay. The format is functional.
Data set [2] has as its system MOLM-14. Description: Antiproliferative activity against human MOLM-14 cells harboring FLT3 ITD/F691L double mutant assessed as inhibition of cell growth incubated for 72 hrs by EZ-Cytox colorimetric assay. Type of data set: functional.
The subject of another data set is HepG2. Description: Antiproliferative activity against human HepG2 cells assessed as inhibition of cell growth at 1 uM incubated for 72 hrs by EZ-Cytox colorimetric assay relative to control. The format is functional.
The test system of data set [3] is MOLM-14. The experiment in a line: Antiproliferative activity against human MOLM-14 cells harboring FLT3 ITD/D835Y double mutant assessed as inhibition of cell growth incubated for 72 hrs by EZ-Cytox colorimetric assay. The format is functional.
The next data set concerns PC-3. Description: Antiproliferative activity against human PC-3 cells assessed as inhibition of cell growth at 1 uM incubated for 72 hrs by EZ-Cytox colorimetric assay relative to control. Type of data set: functional.
Data set [4] has as its system BaF3. Description: Antiproliferative activity against mouse BaF3 cells harboring FLT3 ITD/D835Y double mutant assessed as inhibition of cell growth incubated for 72 hrs by EZ-Cytox colorimetric assay. Type of data set: functional.
The subject of another data set is MV4-11. Description: Antiproliferative activity against human MV4-11 cells assessed as inhibition of cell growth incubated for 72 hrs by EZ-Cytox colorimetric assay. The format is functional.
A further data set has as its system MDA-MB-231. The experiment in a line: Antiproliferative activity against human MDA-MB-231 cells assessed as inhibition of cell growth at 1 uM incubated for 72 hrs by EZ-Cytox colorimetric assay relative to control. Type of data set: functional.
The test system of data set [5] is BaF3. Description: Antiproliferative activity against mouse BaF3 cells harboring FLT3 ITD/F691L double mutant assessed as inhibition of cell growth incubated for 72 hrs by EZ-Cytox colorimetric assay. Type of data set: functional.
Data set [6] has as its system BaF3. The experiment in a line: Antiproliferative activity against mouse BaF3 cells harboring FLT3 ITD mutant assessed as inhibition of cell growth incubated for 72 hrs by EZ-Cytox colorimetric assay. The format is functional.
The next data set deals with Huh-7. Description: Antiproliferative activity against human Huh-7 cells assessed as inhibition of cell growth incubated for 72 hrs by EZ-Cytox colorimetric assay. Type of data set: functional.
A further data set concerns HCT-116. The experiment in a line: Antiproliferative activity against human HCT-116 cells assessed as inhibition of cell growth at 1 uM incubated for 72 hrs by EZ-Cytox colorimetric assay relative to control. The format is functional.
The subject of the next data set is A549. The experiment in a line: Antiproliferative activity against human A549 cells assessed as inhibition of cell growth at 1 uM incubated for 72 hrs by EZ-Cytox colorimetric assay relative to control. Type of data set: functional.
In data set [7] the target is T1, Receptor-type tyrosine-protein kinase FLT3 (Homo sapiens, UniProt P36888).
T1 sequence (P36888 whole entry): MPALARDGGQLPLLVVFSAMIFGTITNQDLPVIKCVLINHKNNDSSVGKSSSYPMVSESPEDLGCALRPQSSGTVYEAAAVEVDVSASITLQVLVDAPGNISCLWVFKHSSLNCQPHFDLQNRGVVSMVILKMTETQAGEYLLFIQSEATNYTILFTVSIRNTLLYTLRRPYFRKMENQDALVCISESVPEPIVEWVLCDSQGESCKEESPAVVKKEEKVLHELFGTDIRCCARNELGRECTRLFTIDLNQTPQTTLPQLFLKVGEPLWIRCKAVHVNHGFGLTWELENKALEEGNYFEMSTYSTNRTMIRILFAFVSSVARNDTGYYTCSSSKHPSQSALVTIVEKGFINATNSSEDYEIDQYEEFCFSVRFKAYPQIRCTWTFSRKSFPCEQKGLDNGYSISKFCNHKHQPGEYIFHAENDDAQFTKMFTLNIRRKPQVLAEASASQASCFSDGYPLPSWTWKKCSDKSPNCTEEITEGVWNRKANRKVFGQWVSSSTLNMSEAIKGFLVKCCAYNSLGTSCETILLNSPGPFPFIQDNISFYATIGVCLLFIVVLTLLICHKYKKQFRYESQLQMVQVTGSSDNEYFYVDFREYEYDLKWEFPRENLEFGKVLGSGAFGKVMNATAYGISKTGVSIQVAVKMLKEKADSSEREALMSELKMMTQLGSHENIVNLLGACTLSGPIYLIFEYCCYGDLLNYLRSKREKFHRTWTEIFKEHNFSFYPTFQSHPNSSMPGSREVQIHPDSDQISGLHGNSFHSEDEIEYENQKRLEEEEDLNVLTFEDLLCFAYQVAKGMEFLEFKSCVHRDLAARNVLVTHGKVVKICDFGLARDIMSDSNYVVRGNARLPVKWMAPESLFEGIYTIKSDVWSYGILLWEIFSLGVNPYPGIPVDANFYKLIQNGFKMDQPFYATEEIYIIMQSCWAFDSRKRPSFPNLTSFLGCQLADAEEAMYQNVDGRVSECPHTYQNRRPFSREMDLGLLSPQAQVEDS
Description: Inhibition of human recombinant His-tagged FLT3 kinase domain (564 to 958 residues) expressed in baculovirus expression system incubated for 30 mins in presence of ATP by HTRF analysis. (Time-resolved FRET reads energy transfer from a long-lived donor to a nearby acceptor.)

The nature of data set [8]: Clearance in ICR mouse at 10 mg/kg, iv measured upto 24 hrs. Type of data set: ADME, organism-based. The conditions noted are these: in vivo.
A short description of data set [9]: AUClast in ICR mouse at 10 mg/kg, iv measured upto 24 hrs. The format is ADME, organism-based. Also on record: time < 24 hrs, dose 10 mg/kg, route iv. The conditions noted are these: in vivo.
In data set [10] the target is Receptor-type tyrosine-protein kinase FLT3 (Homo sapiens, UniProt P36888, D835Y). Description: Inhibition of human recombinant His-tagged FLT3/D835Y mutant expressed in baculovirus expression system incubated for 30 mins in presence of ATP by HTRF analysis.
The nature of data set [11]: Half life in ICR mouse at 10 mg/kg, iv measured upto 24 hrs. The format is ADME, organism-based. The conditions noted are these: in vivo.
Data set [12] can be described thus: Volume of distribution at steady state in ICR mouse at 10 mg/kg, iv measured upto 24 hrs. The format is ADME, organism-based. As to conditions: in vivo, read-out: Vdss.

One may read the inhibition as the drop in the measured response relative to a control, in per cent. In general, GI50 refers to the concentration at which growth is held to half of that of the control. Consider `CCc1nc(C(N)=O)c(Nc2ccc(N3CCC(N4CCN(C)CC4)CC3)c(OC)c2)cc1NC1CCOCC1`, for which the inhibition at 1 µM in the data set on K562 is 74.6%; in the data set with HepG2, 46.9%; in the data set with PC-3, 44.3%; in the data set with MDA-MB-231, 42.1%; with HCT-116, 47.7%; in the data set on A549, 4.31%. For the same molecule, the GI50 was found to be 35.4 nM in the data set with MOLM-14 [1]; 70.1 nM with MOLM-14 [2]; 19.4 nM with MOLM-14 [3]; 2.45 nM in the data set on BaF3 [4]; 8.2 nM in the data set on MV4-11; 38 nM with BaF3 [5]. The figures for the GI50 in the data set on BaF3 [6] and in the data set on Huh-7 were 1.9 nM and 435 nM, respectively.
The term IC50 denotes the point on the concentration scale where inhibition reaches its midpoint. As a reminder, the clearance is the rate of elimination divided by the concentration. The low end stands for inefficient removal, the high end for efficient removal. The term AUC(0-t) denotes exposure summed from dosing to a finite time, without extrapolation to infinity. Read a high AUC(0-t) as more exposure. In general, half-life refers to how long it takes for the measured level to halve. Read a high half-life as slow loss. Consider `Cl.O=C(CO/N=C1/C(=C2/C(=O)Nc3ccccc32)Nc2ccccc21)N[C@@H]1CCNC1`, for which the GI50 in the data set with MOLM-14 [1] was determined as 2.73 nM; in the data set on MOLM-14 [2], 3.23 nM; in the data set on MOLM-14 [3], 3.49 nM; with MV4-11 it was 0.52 nM. Also, the figures for the 50% inhibitory concentration (IC50) in data set [7] and in data set [10] were 0.29 nM and 0.2 nM, respectively. Further, the clearance in [8] is 323 mL/min/kg. For the same molecule, the AUC(0-t) at 24 h in data set [9] came to 367 ng·h/mL. Besides, the half-life in data set [11] was 3.7 h. Also, the Vd in data set [12] was 103 L/kg.
